Series [1] deals with Rattus norvegicus. Nature of the series: Antipyretic activity against LPS-induced polyphasic febrile response in rats assessed as change in core body temperature at 150 mg/kg, po treated 40 mins prior to LPS addition and measured after 160 mins during phase 1 (reference value: 0.85 deg C). The following applies: time 200 min, 3.333 h. It is filed as functional.
The test system of series [2] is Rattus norvegicus. In words: Antipyretic activity against LPS-induced polyphasic febrile response in rats assessed as return of body temperature to background value at 150 mg/kg, po treated 40 mins prior to LPS addition and measured after 235 mins. The series is classed as functional, organism-based. The following applies: time 275.0 min.
Series [3] has as its system Rattus norvegicus. In words: Antipyretic activity against LPS-induced polyphasic febrile response in rats assessed as suppression of rise in core body temperature at 150 mg/kg, po treated 40 mins prior to LPS addition and measured after 160 mins relative to control. The series is classed as functional. The following applies: time 200 min, 3.333 h.
Series [4] has as its system Rattus norvegicus. Nature of the series: Antinociceptive activity in zymosan-induced rat arthritis model assessed as nociceptive response inhibition at 150 mg/kg, ig administered once daily for 7 days and measured 1 hr post-zymosan challenge on day 7 by Randall-Selitto test (reference value: -34.6%). The series is classed as functional. The following applies: po, 168 h, time 7 day.

The subject of series [5] is Rattus norvegicus. In words: Antinociceptive activity in zymosan-induced rat model of thermal nociceptive hypersensitivity assessed as nociceptive response inhibition at 150 mg/kg, ig administered once daily for 7 days and measured 1 hr post-zymosan challenge on day 7 by hot-plate test (reference value: -42.4%). It is filed as functional. The following applies: po, 168 h, time 7 day.

Series [6] is described as follows: Hepatotoxicity in zymosan-induced rat arthritis model assessed as effect on beam structure of liver at 150 mg/kg, ig administered once daily for 7 days by hematoxylin-eosin staining based histological analysis. The series is classed as toxicity, organism-based. The following applies: in vivo, po, 168 h, time 7 day.
The nature of series [7]: Hepatotoxicity in zymosan-induced rat arthritis model assessed as effect on general architecture of liver at 150 mg/kg, ig administered once daily for 7 days by hematoxylin-eosin staining based histological analysis. It is filed as toxicity, organism-based. The following applies: in vivo, po, 168 h, time 7 day.
Series [8] is described as follows: Hepatotoxicity in zymosan-induced rat arthritis model assessed as effect on sinusoids elongation at 150 mg/kg, ig administered once daily for 7 days by hematoxylin-eosin staining based histological analysis. It is filed as toxicity, organism-based, Liver. The following applies: in vivo, po, 168 h, time 7 day.
Series [9] in a line: Hepatotoxicity in zymosan-induced rat arthritis model assessed as effect on sinusoids arrangement at 150 mg/kg, ig administered once daily for 7 days by hematoxylin-eosin staining based histological analysis. The series is classed as toxicity, organism-based, Liver. The following applies: in vivo, po, 168 h, time 7 day.
Series [10] in a line: Hepatotoxicity in zymosan-induced rat arthritis model assessed as change in hepatocyte shape at 150 mg/kg, ig administered once daily for 7 days by hematoxylin-eosin staining based histological analysis. It is filed as toxicity, organism-based, Liver. The following applies: in vivo, po, 168 h, time 7 day.
Series [11] in a line: Hepatotoxicity in zymosan-induced rat arthritis model assessed as disruption of hepatocyte membrane at 150 mg/kg, ig administered once daily for 7 days by hematoxylin-eosin staining based histological analysis. It is filed as toxicity, organism-based, Liver. The following applies: in vivo, po, 168 h, time 7 day.
Series [12] is described as follows: Hepatotoxicity in zymosan-induced rat arthritis model assessed as change in hepatocyte nucleus size at 150 mg/kg, ig administered once daily for 7 days by hematoxylin-eosin staining based histological analysis. It is filed as toxicity, organism-based, Liver. The following applies: in vivo, po, 168 h, time 7 day.
The nature of series [13]: Hepatotoxicity in zymosan-induced rat arthritis model assessed as change in hepatocyte karyoplasm at 150 mg/kg, ig administered once daily for 7 days by hematoxylin-eosin staining based histological analysis. The following applies: in vivo, po, 168 h, time 7 day. It is filed as toxicity, organism-based, Liver.
Series [14] in a line: Hepatotoxicity in zymosan-induced rat arthritis model assessed as appearance of vacuoles in hepatocyte cytoplasm at 150 mg/kg, ig administered once daily for 7 days by hematoxylin-eosin staining based histological analysis. It is filed as toxicity, organism-based, Liver. The following applies: in vivo, po, 168 h, time 7 day.
Series [15] in a line: Hepatotoxicity in zymosan-induced rat arthritis model assessed as change in hepatocyte cytoplasmic appearance at 150 mg/kg, ig administered once daily for 7 days by hematoxylin-eosin staining based histological analysis. It is filed as toxicity, organism-based, Liver. The following applies: in vivo, po, 168 h, time 7 day.
Series [16] is described as follows: Hepatotoxicity in zymosan-induced rat arthritis model assessed as change in shape of liver central veins at 150 mg/kg, ig administered once daily for 7 days by hematoxylin-eosin staining based histological analysis. The series is classed as toxicity, organism-based. The following applies: in vivo, po, 168 h, time 7 day.
Series [17] is described as follows: Hepatotoxicity in zymosan-induced rat arthritis model assessed as change in shape of liver portal tracts at 150 mg/kg, ig administered once daily for 7 days by hematoxylin-eosin staining based histological analysis. The series is classed as toxicity, organism-based. The following applies: in vivo, po, 168 h, time 7 day.
For series [18], the system named is Rattus norvegicus. Nature of the series: Antipyretic activity against LPS-induced polyphasic febrile response in rats assessed as suppression of rise in core body temperature at 215 mg/kg, po treated 40 mins prior to LPS addition and measured after 10 mins. The series is classed as functional, organism-based. The following applies: time 50.0 min.
Series [19] concerns Rattus norvegicus. In words: Antipyretic activity against LPS-induced polyphasic febrile response in rats assessed as change in core body temperature at 215 mg/kg, po treated 40 mins prior to LPS addition and measured after 160 mins during phase 1 (reference value: 0.85 deg C). It is filed as functional, organism-based. The following applies: time 200.0 min.
The subject of series [20] is Rattus norvegicus. Nature of the series: Antipyretic activity against LPS-induced polyphasic febrile response in rats assessed as return of body temperature to background value at 215 mg/kg, po treated 40 mins prior to LPS addition and measured after 190 mins. The series is classed as functional, organism-based. The following applies: time 230.0 min.
Series [21] relates to Rattus norvegicus. Nature of the series: Antipyretic activity against LPS-induced polyphasic febrile response in rats assessed as suppression of rise in core body temperature at 215 mg/kg, po treated 40 mins prior to LPS addition and measured after 160 mins relative to control. The series is classed as functional. The following applies: time 200 min, 3.333 h.
The test system of series [22] is Rattus norvegicus. In words: Antinociceptive activity in zymosan-induced rat arthritis model assessed as nociceptive response inhibition at 215 mg/kg, ig administered once daily for 7 days and measured 1 hr post-zymosan challenge on day 7 by Randall-Selitto test (reference value: -34.6%). The series is classed as functional. The following applies: po, 168 h, time 7 day.

In series [23] the test system is Rattus norvegicus. In words: Antinociceptive activity in zymosan-induced rat model of thermal nociceptive hypersensitivity assessed as nociceptive response inhibition at 215 mg/kg, ig administered once daily for 7 days and measured 1 hr post-zymosan challenge on day 7 by hot-plate test (reference value: -42.4%). The following applies: po, 168 h, time 7 day. The series is classed as functional.

Series [24] in a line: Hepatotoxicity in zymosan-induced rat arthritis model assessed as effect on beam structure of liver at 215 mg/kg, ig administered once daily for 7 days by hematoxylin-eosin staining based histological analysis. It is filed as toxicity, organism-based. The following applies: in vivo, po, 168 h, time 7 day.
Series [25] can be described thus: Hepatotoxicity in zymosan-induced rat arthritis model assessed as effect on general architecture of liver at 215 mg/kg, ig administered once daily for 7 days by hematoxylin-eosin staining based histological analysis. It is filed as toxicity, organism-based. The following applies: in vivo, po, 168 h, time 7 day.
Series [26] is described as follows: Hepatotoxicity in zymosan-induced rat arthritis model assessed as effect on sinusoids elongation at 215 mg/kg, ig administered once daily for 7 days by hematoxylin-eosin staining based histological analysis. The following applies: in vivo, po, 168 h, time 7 day. It is filed as toxicity, organism-based, Liver.
A short description of series [27]: Hepatotoxicity in zymosan-induced rat arthritis model assessed as effect on sinusoids arrangement at 215 mg/kg, ig administered once daily for 7 days by hematoxylin-eosin staining based histological analysis. The following applies: in vivo, po, 168 h, time 7 day. The series is classed as toxicity, organism-based, Liver.
Series [28] in a line: Hepatotoxicity in zymosan-induced rat arthritis model assessed as change in hepatocyte shape at 215 mg/kg, ig administered once daily for 7 days by hematoxylin-eosin staining based histological analysis. The following applies: in vivo, po, 168 h, time 7 day. It is filed as toxicity, organism-based, Liver.
The nature of series [29]: Hepatotoxicity in zymosan-induced rat arthritis model assessed as disruption of hepatocyte membrane at 215 mg/kg, ig administered once daily for 7 days by hematoxylin-eosin staining based histological analysis. It is filed as toxicity, organism-based, Liver. The following applies: in vivo, po, 168 h, time 7 day.
Series [30] can be described thus: Hepatotoxicity in zymosan-induced rat arthritis model assessed as change in hepatocyte nucleus size at 215 mg/kg, ig administered once daily for 7 days by hematoxylin-eosin staining based histological analysis. The following applies: in vivo, po, 168 h, time 7 day. It is filed as toxicity, organism-based, Liver.
Series [31] in a line: Hepatotoxicity in zymosan-induced rat arthritis model assessed as change in hepatocyte karyoplasm at 215 mg/kg, ig administered once daily for 7 days by hematoxylin-eosin staining based histological analysis. The series is classed as toxicity, organism-based, Liver. The following applies: in vivo, po, 168 h, time 7 day.
A short description of series [32]: Hepatotoxicity in zymosan-induced rat arthritis model assessed as appearance of vacuoles in hepatocyte cytoplasm at 215 mg/kg, ig administered once daily for 7 days by hematoxylin-eosin staining based histological analysis. The series is classed as toxicity, organism-based, Liver. The following applies: in vivo, po, 168 h, time 7 day.
The nature of series [33]: Hepatotoxicity in zymosan-induced rat arthritis model assessed as change in hepatocyte cytoplasmic appearance at 215 mg/kg, ig administered once daily for 7 days by hematoxylin-eosin staining based histological analysis. It is filed as toxicity, organism-based, Liver. The following applies: in vivo, po, 168 h, time 7 day.
Series [34] can be described thus: Hepatotoxicity in zymosan-induced rat arthritis model assessed as change in shape of liver central veins at 215 mg/kg, ig administered once daily for 7 days by hematoxylin-eosin staining based histological analysis. The following applies: in vivo, po, 168 h, time 7 day. The series is classed as toxicity, organism-based.
Series [35] can be described thus: Hepatotoxicity in zymosan-induced rat arthritis model assessed as change in shape of liver portal tracts at 215 mg/kg, ig administered once daily for 7 days by hematoxylin-eosin staining based histological analysis. It is filed as toxicity, organism-based. The following applies: in vivo, po, 168 h, time 7 day.

Each structure is given as a SMILES string. Activity calls are given as the source filed them. No cut-off for these calls is given here.

For `CCCCCCCC(=O)Nc1ccc(OCC(=O)O)cc1`, the T with Rattus norvegicus [1] amounted to 0.28 °C. Further, the outcome in the series with Rattus norvegicus [2] was Active. Further, in the series on Rattus norvegicus [3], the “fold change (FC)” value is reported as 3. Besides, the inhibition in vivo at 150 mg/kg with Rattus norvegicus [4] was 21.3%; with Rattus norvegicus [5] it was 8.5%. For the same compound, the Activity result in [6], in [7], in [8], in series [9], in [10] and in [11] was “Non-toxic” each time. For the same compound, the Activity entry in series [12], in series [13], in [14], in series [15], in series [16] and in series [17] was “Non-toxic” in each case.
On to `CCCCCCCCCCCCCCCC(=O)Nc1ccc(OCC(=O)O)cc1`, for which the result in the series with Rattus norvegicus [18] and in the series with Rattus norvegicus [20] was Active. Also, in the series on Rattus norvegicus [19], the ΔTm amounted to 0.28 °C. Further, the “fold change (FC)” value in the series with Rattus norvegicus [21] came to 3. For the same compound, the inhibition in vivo at 215 mg/kg in the series on Rattus norvegicus [22] came to 21.7%; in the series with Rattus norvegicus [23], 42.2%. For the same compound, the Activity entry in series [24], in series [25], in series [26], in series [27], in [28] and in series [29] was “Non-toxic” each time. Moreover, the Activity result in [30], in series [31], in [32], in [33], in series [34] and in series [35] was “Non-toxic” each time.

Values taken from ChEMBL document CHEMBL6114949, “Synthesis and physiological effects of new 4-aminophenol derivatives as paracetamol analogues” (Bioorg Med Chem Lett, 2025).
